The subject of assay [1] is p21 induction in HCT 116 cells. The experiment in a line: p21 induction in cells (In-Cell Western, p21/GAPDH ratio). Format: cell-based. To be noted: 24 h compound incubation, read-out: p21_EC50. Summed up: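 HCT 116 cells treated 24 h at 37° C with 11-point, 2-fold dilutions typically from 10 μM, in duplicate. Fixed cells co-stained for p21 (800 nm) and GAPDH (700 nm) by In-Cell Western. p21/GAPDH ratio normalised between DMSO and reference WRN inhibitor controls, and EC50 obtained by nonlinear regression.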

The target of assay [2] is human Werner helicase (WRN, amino acids 517-1235 with L1074F point mutation) (Homo sapiens (Human), UniProt Q14191, L1074F). The experiment in a line: WRN (BV08) ADP-Glo assay. Format: biochemical. To be noted: human WRN (aa 517-1235, L1074F), read-out: ADP-Glo_hWRN_IC50. Summed up:
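Untagged WRN 517-1235 (L1074F), Sf9/baculovirus-expressed, 0.15 nM, preincubated 15 min with compound, then 5 μM ATP and 0.1 nM annealed DNA duplex added; 60 min at 25 °C in Bicine pH 7.5, 1 mM MgCl2, 1% DMSO. ADP-Glo luminescence; % inhibition vs DMSO and 20 μM NSC-617145 controls, four-parameter IC50 fit.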
(In ADP-Glo the light output rises with the ADP produced.)

Where two headings read alike, the source gives them in different places. Bounds are passed on as bounds.

Chain of human Werner helicase (WRN, amino acids 517-1235 with L1074F point mutation) (Q14191 other isoform, or with tags, fused parts or gaps L1074F (already in the parent)): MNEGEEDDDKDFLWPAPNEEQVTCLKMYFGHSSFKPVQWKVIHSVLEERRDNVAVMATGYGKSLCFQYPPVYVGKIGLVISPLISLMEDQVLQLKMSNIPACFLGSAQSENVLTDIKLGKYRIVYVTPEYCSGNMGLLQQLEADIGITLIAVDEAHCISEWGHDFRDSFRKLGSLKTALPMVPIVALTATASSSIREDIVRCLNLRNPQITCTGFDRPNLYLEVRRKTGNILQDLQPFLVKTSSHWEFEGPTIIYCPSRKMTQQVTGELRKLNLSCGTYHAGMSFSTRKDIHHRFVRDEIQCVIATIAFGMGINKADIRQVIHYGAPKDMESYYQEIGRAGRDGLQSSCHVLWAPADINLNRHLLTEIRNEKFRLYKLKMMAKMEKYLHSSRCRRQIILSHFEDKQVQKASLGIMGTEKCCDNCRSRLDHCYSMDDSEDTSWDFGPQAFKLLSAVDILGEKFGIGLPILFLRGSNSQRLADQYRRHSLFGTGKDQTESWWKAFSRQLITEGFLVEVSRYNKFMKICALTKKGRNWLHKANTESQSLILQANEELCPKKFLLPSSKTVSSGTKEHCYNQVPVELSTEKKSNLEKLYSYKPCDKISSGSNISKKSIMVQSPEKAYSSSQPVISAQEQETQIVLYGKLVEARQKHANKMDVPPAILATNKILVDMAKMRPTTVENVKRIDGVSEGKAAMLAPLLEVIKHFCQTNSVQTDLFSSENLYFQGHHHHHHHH

Turning to `CCc1c(N2CCN(C(=O)c3c(OC)ncc(C(F)F)c3O)CC2)c(=O)c2nn(-c3ccnc(OC)c3)nc2n1CC(=O)NC12CC(C(C)C)(C1)C2` [Compound I-51, 2-(6-{4-[5-(difluoromethyl)-4-hydroxy-2-methoxypyridine-3-carbonyl]piperazin-1-yl}-5-ethyl-2-(2-methoxypyridin-4-yl)-7-oxo-2H,4H,7H-[1,2,3]triazolo[4,5-b]pyridin-4-yl)-N-[3-(propan-2-yl)bicyclo[1.1.1]pentan-1-yl]acetamide], the EC50 in assay [1] (Homo sapiens) is 2000 to 5000 nM. Moreover, the IC50 in assay [2] is 5 to 50 nM.

Regarding `CCc1c(N2CCN(C(=O)c3cncnc3OC)[C@H]3CC[C@@H]32)c(=O)c2nn(C3=CCOCC3)nc2n1CC(=O)NC12CC(C(C)C)(C1)C2` [Compound I-201, 2-[2-(3,6-dihydro-2H-pyran-4-yl)-5-ethyl-6-[(1S,6S)-5-(4-methoxypyrimidine-5-carbonyl)-2,5-diazabicyclo[4.2.0]octan-2-yl]-7-oxo-2H,4H,7H-[1,2,3]triazolo[4,5-b]pyridin-4-yl]-N-[3-(propan-2-yl)bicyclo[1.1.1]pentan-1-yl]acetamide], the EC50 in assay [1] (Homo sapiens) is at most 500 nM. The IC50 in assay [2] is 5 to 50 nM.

For the compound `CCc1c(N2CCN(C(=O)c3ncnc(C)c3O)[C@H]3CC[C@@H]32)c(=O)c2nn(-c3cc(C)n(C)n3)nc2n1CC(=O)NC12CC(C3CC3)(C1)C2` [Compound I-34, N-{3-cyclopropylbicyclo[1.1.1]pentan-1-yl}-2-[2-(1,5-dimethyl-1H-pyrazol-3-yl)-5-ethyl-6-[(1S,6S)-5-(5-hydroxy-6-methylpyrimidine-4-carbonyl)-2,5-diazabicyclo[4.2.0]octan-2-yl]-7-oxo-2H,4H,7H-[1,2,3]triazolo[4,5-b]pyridin-4-yl]acetamide], the EC50 in assay [1] (Homo sapiens) was at most 500 nM. Also, the IC50 in assay [2] was 5 to 50 nM.

In the case of `CCc1c(N2CCN(C(=O)c3ncnc(C)c3O)[C@H]3CC[C@@H]32)c(=O)c2nn(C3=CCO[C@H](C)C3)nc2n1CC(=O)NC12CC(C3CC3)(C1)C2` (single isomer, unassigned) [Compound I-181], in assay [1], the EC50 is at most 500 nM. Further, the IC50 in assay [2] was in the range of 5 to 50 nM.

As to `CCc1c(N2CCN(C(=O)c3cnccc3OC)[C@H]3CC[C@@H]32)c(=O)c2nn(C3=CCOCC3)nc2n1CC(=O)NC12CC(C(C)C)(C1)C2` [Compound I-203, 2-[2-(3,6-dihydro-2H-pyran-4-yl)-5-ethyl-6-[(1S,6S)-5-(4-methoxypyridine-3-carbonyl)-2,5-diazabicyclo[4.2.0]octan-2-yl]-7-oxo-2H,4H,7H-[1,2,3]triazolo[4,5-b]pyridin-4-yl]-N-[3-(propan-2-yl)bicyclo[1.1.1]pentan-1-yl]acetamide], the EC50 in assay [1] (Homo sapiens) fell in the range of 500 to 2000 nM. For the same compound, the IC50 in assay [2] was in the range of 5 to 50 nM.

Regarding `CCc1c(N2CCN(C(=O)c3[nH]ncc3OC)[C@H]3CC[C@@H]32)c(=O)c2nn(C3=CCOCC3)nc2n1CC(=O)NC12CC(C(C)C)(C1)C2` [Compound I-166, 2-[2-(3,6-dihydro-2H-pyran-4-yl)-5-ethyl-6-[(1S,6S)-5-(4-methoxy-1H-pyrazole-5-carbonyl)-2,5-diazabicyclo[4.2.0]octan-2-yl]-7-oxo-2H,4H,7H-[1,2,3]triazolo[4,5-b]pyridin-4-yl]-N-[3-(propan-2-yl)bicyclo[1.1.1]pentan-1-yl]acetamide], the EC50 in assay [1] (Homo sapiens) fell in the range of 500 to 2000 nM. Besides, the IC50 in assay [2] is 5 to 50 nM.

Regarding `CCc1c(N2CCN(C(=O)c3cnn(C)c3)[C@H]3CC[C@@H]32)c(=O)c2nn(C3=CCOCC3)nc2n1CC(=O)NC12CC(C(C)C)(C1)C2` [Compound I-206, 2-[2-(3,6-dihydro-2H-pyran-4-yl)-5-ethyl-6-[(1S,6S)-5-(1-methyl-1H-pyrazole-4-carbonyl)-2,5-diazabicyclo[4.2.0]octan-2-yl]-7-oxo-2H,4H,7H-[1,2,3]triazolo[4,5-b]pyridin-4-yl]-N-[3-(propan-2-yl)bicyclo[1.1.1]pentan-1-yl]acetamide], the EC50 in assay [1] (Homo sapiens) fell in the range of 500 to 2000 nM. For the same compound, the IC50 in assay [2] lay in the range of 5 to 50 nM.

In the case of `CCc1c(N2CCN(C(=O)c3c(O)ccc4ncoc34)CC2)c(=O)c2nn(C3CC3)nc2n1CC(=O)Nc1ccc(C(F)(F)F)cc1Cl` [Compound I-133, N-[2-chloro-4-(trifluoromethyl)phenyl]-2-{2-cyclopropyl-5-ethyl-6-[4-(6-hydroxy-1,3-benzoxazole-7-carbonyl)piperazin-1-yl]-7-oxo-2H,4H,7H-[1,2,3]triazolo[4,5-b]pyridin-4-yl}acetamide], the EC50 in assay [1] (Homo sapiens) was at most 500 nM. In addition, the IC50 in assay [2] was 5 to 50 nM.

Regarding `CCc1c(N2CCN(C(=O)c3ncnc(C)c3O)[C@H]3CC[C@@H]32)c(=O)c2nn(C3=CCOCC3)nc2n1CC(=O)Nc1ccc(C(F)F)cc1F` [Compound I-154, N-[4-(difluoromethyl)-2-fluorophenyl]-2-[2-(3,6-dihydro-2H-pyran-4-yl)-5-ethyl-6-[(1S,6S)-5-(5-hydroxy-6-methylpyrimidine-4-carbonyl)-2,5-diazabicyclo[4.2.0]octan-2-yl]-7-oxo-2H,4H,7H-[1,2,3]triazolo[4,5-b]pyridin-4-yl]acetamide], the EC50 in assay [1] (Homo sapiens) was at most 500 nM. In addition, the IC50 in assay [2] was in the range of 5 to 50 nM.

With `CCc1c(N2CCN(C(=O)c3ncnc(C)c3O)C3CCC[C@H]32)c(=O)c2nn(-c3ccnc(OC)c3)nc2n1CC(=O)NC12CC(C(C)C)(C1)C2` (stereo in doubt) [Compound I-76, rel-2-{6-[(4aR,7aS)-4-(5-hydroxy-6-methylpyrimidine-4-carbonyl)-octahydro-1H-cyclopenta[b]pyrazin-1-yl]-5-ethyl-2-(2-methoxypyridin-4-yl)-7-oxo-2H,4H,7H-[1,2,3]triazolo[4,5-b]pyridin-4-yl}-N-[3-(propan-2-yl)bicyclo[1.1.1]pentan-1-yl]acetamide], the EC50 in assay [1] (Homo sapiens) was 500 to 2000 nM. In addition, in assay [2], the IC50 was in the range of 5 to 50 nM.

In the case of `CCc1c(N2CCN(C(=O)c3c(OC)ncc(C)c3O)CC2)c(=O)c2nn(-c3ccnc(OC)c3)nc2n1CC(=O)NC12CC(N3CCCC3)(C1)C2` [Compound I-124, 2-{5-ethyl-6-[4-(4-hydroxy-2-methoxy-5-methylpyridine-3-carbonyl)piperazin-1-yl]-2-(2-methoxypyridin-4-yl)-7-oxo-2H,4H,7H-[1,2,3]triazolo[4,5-b]pyridin-4-yl}-N-[3-(pyrrolidin-1-yl)bicyclo[1.1.1]pentan-1-yl]acetamide], in assay [1] (Homo sapiens), the EC50 was above 5000 nM. Also, in assay [2], the IC50 was above 500 nM.

As to `CCc1c(N2CCN(C(=O)c3c(OC)ncc(C)c3O)CC2)c(=O)c2nn(C3=CCOCC3)nc2n1CC(=O)NC12CC(C(C)C)(C1)C2` [Compound I-111, 2-[2-(3,6-dihydro-2H-pyran-4-yl)-5-ethyl-6-[4-(4-hydroxy-2-methoxy-5-methylpyridine-3-carbonyl)piperazin-1-yl]-7-oxo-2H,4H,7H-[1,2,3]triazolo[4,5-b]pyridin-4-yl]-N-[3-(propan-2-yl)bicyclo[1.1.1]pentan-1-yl]acetamide], in assay [1] (Homo sapiens), the EC50 is at most 500 nM. In addition, in assay [2], the IC50 fell in the range of 5 to 50 nM.

With `CCc1c(N2CCN(C(=O)c3ncnc(C)c3O)[C@H]3CC[C@@H]32)c(=O)c2nn([C@@H]3CC3(F)F)nc2n1CC(=O)Nc1ccc(C(F)(F)F)cc1Cl` (single isomer, unassigned) [Compound I-215], in assay [1] (Homo sapiens), the EC50 is at most 500 nM. Besides, the IC50 in assay [2] is at most 5 nM.

Turning to `CCc1c(N2CCN(C(=O)c3c(OC)ncc(C)c3O)CC2)c(=O)c2nn(-c3ccnc(OC)c3)nc2n1CC(=O)NC1CC2(CCC2)C1` [Compound I-125, 2-{5-ethyl-6-[4-(4-hydroxy-2-methoxy-5-methylpyridine-3-carbonyl)piperazin-1-yl]-2-(2-methoxypyridin-4-yl)-7-oxo-2H,4H,7H-[1,2,3]triazolo[4,5-b]pyridin-4-yl}-N-{spiro[3.3]heptan-2-yl}acetamide], the EC50 in assay [1] (Homo sapiens) is 500 to 2000 nM. Also, the IC50 in assay [2] was 5 to 50 nM.

With `CCc1c(C2=CCN(C(=O)c3ncnc(C)c3O)CC2(C)C)c(=O)n2nc(C3=CCOCC3)nc2n1CC(=O)Nc1ccc(C(F)(F)F)cc1Cl` [Compound I-174, N-[2-chloro-4-(trifluoromethyl)phenyl]-2-[2-(3,6-dihydro-2H-pyran-4-yl)-5-ethyl-6-[1-(5-hydroxy-6-methylpyrimidine-4-carbonyl)-3,3-dimethyl-1,2,3,6-tetrahydropyridin-4-yl]-7-oxo-4H,7H-[1,2,4]triazolo[1,5-a]pyrimidin-4-yl]acetamide], the EC50 in assay [1] (Homo sapiens) was at most 500 nM. In assay [2], the IC50 lay in the range of 5 to 50 nM.

Take `CCc1c(N2CCN(C(=O)c3ncnc(C)c3O)[C@H]3CC[C@@H]32)c(=O)c2nn(C3=CC(C)OCC3)nc2n1CC(=O)NC12CC(C3CC3)(C1)C2` (stereo partly drawn) [Compound I-164, N-{3-cyclopropylbicyclo[1.1.1]pentan-1-yl}-2-{5-ethyl-6-[(1S,6S)-5-(5-hydroxy-6-methylpyrimidine-4-carbonyl)-2,5-diazabicyclo[4.2.0]octan-2-yl]-2-(6-methyl-3,6-dihydro-2H-pyran-4-yl)-7-oxo-2H,4H,7H-[1,2,3]triazolo[4,5-b]pyridin-4-yl}acetamide]: the EC50 in assay [1] (Homo sapiens) is at most 500 nM. Moreover, in assay [2], the IC50 was 5 to 50 nM.

Turning to `CCc1c(N2CCN(C(=O)c3ncnc(C)c3O)[C@H]3CC[C@@H]32)c(=O)c2nn(-c3cccc(C)n3)nc2n1CC(=O)NC12CC(C(C)C)(C1)C2` [Compound I-179, 2-{5-ethyl-6-[(1S,6S)-5-(5-hydroxy-6-methylpyrimidine-4-carbonyl)-2,5-diazabicyclo[4.2.0]octan-2-yl]-2-(6-methylpyridin-2-yl)-7-oxo-2H,4H,7H-[1,2,3]triazolo[4,5-b]pyridin-4-yl}-N-[3-(propan-2-yl)bicyclo[1.1.1]pentan-1-yl]acetamide], in assay [1] (Homo sapiens), the EC50 was at most 500 nM. In addition, the IC50 in assay [2] fell in the range of 5 to 50 nM.

These data come from patent publication US20250129069A1, “TRIAZOLO WRN INHIBITORS” (Nimbus Wadjet, Inc., priority 2023, published 2025).
